Measurements published in patent US10414754B2, “Indolizine compounds, a process for their preparation and pharmaceutical compositions containing them” (LES LABORATOIRES SERVIER, priority 2013, dated 2019).
Where a name gives a salt, the structure may show the parent alone.

Assays:
[1] = test system: RS4;11 leukaemia tumour line; assay: In vitro cytotoxicity (MTT) on RS4;11; assay type: cell-based; settings: Homo sapiens; RS4;11 cells, 48 hours exposure
Method: The cytotoxicity studies were carried out on the RS4;11 leukaemia tumour line.
The cells are distributed onto microplates and exposed to the test compounds for 48 hours.
The cell viability is then quantified by a colorimetric assay, the Microculture Tetrazolium Assay (Cancer Res., 1987, 47, 939-942).

[2] = biological target: T1, Bcl-2 protein (histag-Bcl-2, UniProtKB P10415) (Homo sapiens, UniProt P10415); assay: Inhibition of Bcl-2 by the fluorescence polarisation technique; assay type: binding; settings: fluorescence polarisation, 2 hours incubation; read-out: IC50 (nM) Bcl-2 FP
T1 construct: His tag
T1 sequence (P10415 whole entry): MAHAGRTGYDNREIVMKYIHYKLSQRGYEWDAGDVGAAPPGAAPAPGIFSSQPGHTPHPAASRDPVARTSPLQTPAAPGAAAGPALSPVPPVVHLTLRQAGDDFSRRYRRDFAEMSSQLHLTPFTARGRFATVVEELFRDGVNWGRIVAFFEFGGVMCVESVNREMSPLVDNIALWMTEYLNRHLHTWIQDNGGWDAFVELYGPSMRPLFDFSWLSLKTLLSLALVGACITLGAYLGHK
In short: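 Fluorescence polarisation competition: His-tagged human Bcl-2 (2.50×10^−8 M final) was mixed with fluorescein-labelled peptide (1.00×10^−8 M final) and increasing compound concentrations. Buffer was 10 mM Hepes, 150 mM NaCl, 0.05% Tween20, pH 7.4. Polarisation was read after 2 h.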

| Compound | IC50 [2] | IC50 [1] |
| --- | --- | --- |
| O=C(c1cc(-c2cc3c(cc2C(=O)N2Cc4ccccc4C[C@H]2CCN2CCOCC2)OCO3)n2c1CCCC2)N(c1ccc(O)cc1)c1ccc(F)c(F)c1 [Example 25, N-(3,4-Difluorophenyl)-N-(4-hydroxyphenyl)-3-(6-{[(3S)-3-[2-(morpholin-4-yl)ethyl]-3,4-dihydroisoquinolin-2(1H)-yl]carbonyl}-1,3-benzodioxol-5-yl)-5,6,7,8-tetrahydroindolizine-1-carboxamide hydrochloride] | 7.9 nM | 30 nM |
| C[C@@H]1Cc2ccccc2CN1C(=O)c1ccc(F)cc1-c1cc(C(=O)N(c2ccncc2)c2ccc(O)cc2)c2ccccn12 [Example 62, 3-(5-Fluoro-2-{[(3R)-3-methyl-3,4-dihydroisoquinolin-2(1H)-yl]-carbonyl}phenyl)-N-(4-hydroxyphenyl)-N-(pyridin-4-yl)indolizine-1-carboxamide] | 5.6 nM | 96.6 nM |
| C[C@@H]1Cc2ccccc2CN1C(=O)c1ccc(Cl)cc1-c1cc(C(=O)N(c2ccc(O)cc2)c2ccc3c(ccn3CCN3CCOCC3)c2)c2ccccn12 [Example 8, 3-(5-Chloro-2-{[(3R)-3-methyl-3,4-dihydroisoquinolin-2(1H)-yl]-carbonyl}phenyl)-N-(4-hydroxyphenyl)-N-{1-[2-(morpholin-4-yl)ethyl]-1H-indol-5-yl}indolizine-1-carboxamide hydrochloride] | 24.5 nM | 20.5 nM |
| O=C(c1cc(-c2cc3c(cc2C(=O)N2Cc4ccccc4C[C@H]2CCN2CCOCC2)OCO3)n2c1CCCC2)N(c1ccccc1)c1ccc(O)cc1 [Example 13, N-(4-Hydroxyphenyl)-3-(6-{[(3S)-3-[2-(morpholin-4-yl)ethyl]-3,4-dihydroisoquinolin-2(1H)-yl]carbonyl}-1,3-benzodioxol-5-yl)-N-phenyl-5,6,7,8-tetrahydroindolizine-1-carboxamide hydrochloride] | 5.8 nM | 33.6 nM |

More lines, main results first:

| IC50 [2] | Compound | IC50 [1] |
| --- | --- | --- |
| 5.5 nM | C[C@@H]1Cc2ccccc2CN1C(=O)c1cc2c(cc1-c1cc(C(=O)N(c3ccc(O)cc3)c3cncc(F)c3)c3ccccn13)OCO2 [Example 55, N-(5-Fluoropyridin-3-yl)-N-(4-hydroxyphenyl)-3-(6-{[(3R)-3-methyl-3,4-dihydroisoquinolin-2(1H)-yl]carbonyl}-1,3-benzodioxol-5-yl)indolizine-1-carboxamide] | 22.8 nM |
| 5.1 nM | C[C@@H]1Cc2ccccc2CN1C(=O)c1cc2c(cc1-c1cc(C(=O)N(c3ccncc3)c3ccc(O)cc3)c3n1CCCC3)OCO2 [Example 42, N-(4-Hydroxyphenyl)-3-(6-{[(3R)-3-methyl-3,4-dihydroisoquinolin-2(1H)-yl]carbonyl}-1,3-benzodioxol-5-yl)-N-(pyridin-4-yl)-5,6,7,8-tetrahydro-indolizine-1-carboxamide hydrochloride] | 57.6 nM |
| 4.8 nM | O=C(c1cc(-c2cc3c(cc2C(=O)N2Cc4ccccc4C[C@H]2CCNCC(F)F)OCO3)n2c1CCCC2)N(c1ccccc1)c1ccc(O)cc1 [Example 43, 3-(6-{[(3S)-3-{2-[(2,2-Difluoroethyl)amino]ethyl}-3,4-dihydroisoquinolin-2(1H)-yl]carbonyl}-1,3-benzodioxol-5-yl)-N-(4-hydroxyphenyl)-N-phenyl-5,6,7,8-tetrahydroindolizine-1-carboxamide] | 26 nM |
| 2.2 nM | CC[C@@H]1Cc2ccccc2CN1C(=O)c1ccc(Cl)cc1-c1cc(C(=O)N(c2ccc(O)cc2)c2cnc3c(ccn3C)c2)c2ccccn12 [Example 50, 3-(5-Chloro-2-{[(3R)-3-ethyl-3,4-dihydroisoquinolin-2(1H)-yl]-carbonyl}phenyl)-N-(4-hydroxyphenyl)-N-(1-methyl-1H-pyrrolo[2,3-b]pyridin-5-yl)indolizine-1-carboxamide] | 28.2 nM |
| 5.4 nM | C[C@@H]1Cc2ccccc2CN1C(=O)c1cc2c(cc1-c1cc(C(=O)N(c3ccc(O)cc3)c3ccc4ncccc4c3)c3ccccn13)OCO2 [Example 31, N-(4-Hydroxyphenyl)-3-(6-{[(3R)-3-methyl-3,4-dihydroisoquinolin-2(1H)-yl]carbonyl}-1,3-benzodioxol-5-yl)-N-(quinolin-6-yl)indolizine-1-carboxamide hydrochloride] | 13.7 nM |
